Test [1] concerns the target intracellular phosphorylation of EGFR (Tyr1068) in PC-9 cells (Ex19Del) (Homo sapiens, UniProt P00533, DEL746-750). The test can be described thus: PC-9 pEGFR AlphaLISA assay. The class given is cell-based. To be noted: 4 hours compound incubation, read-out: Ext pEGFR_PC-9 Ex19Del IC50. In general terms: Alpha assays give light when donor and acceptor beads are brought close together.

Another test concerns the target T1, EGFR L858R (Homo sapiens, UniProt P00533, L858R).
T1 construct: purchased SignalChem E10-122BG
As to the kind of experiment: Biochemical EGFR inhibition assay (Caliper mobility shift), EGFR L858R. To be noted: read-out: Enz EGFR_L858R IC50.

The target of the next test is T2, EGFR (d746-750) (Homo sapiens, UniProt P00533, DEL746-750).
T2 construct: purchased SignalChem E10-122JG
T2 sequence (P00533 with tags, fused parts or gaps DEL746-750 limits assumed): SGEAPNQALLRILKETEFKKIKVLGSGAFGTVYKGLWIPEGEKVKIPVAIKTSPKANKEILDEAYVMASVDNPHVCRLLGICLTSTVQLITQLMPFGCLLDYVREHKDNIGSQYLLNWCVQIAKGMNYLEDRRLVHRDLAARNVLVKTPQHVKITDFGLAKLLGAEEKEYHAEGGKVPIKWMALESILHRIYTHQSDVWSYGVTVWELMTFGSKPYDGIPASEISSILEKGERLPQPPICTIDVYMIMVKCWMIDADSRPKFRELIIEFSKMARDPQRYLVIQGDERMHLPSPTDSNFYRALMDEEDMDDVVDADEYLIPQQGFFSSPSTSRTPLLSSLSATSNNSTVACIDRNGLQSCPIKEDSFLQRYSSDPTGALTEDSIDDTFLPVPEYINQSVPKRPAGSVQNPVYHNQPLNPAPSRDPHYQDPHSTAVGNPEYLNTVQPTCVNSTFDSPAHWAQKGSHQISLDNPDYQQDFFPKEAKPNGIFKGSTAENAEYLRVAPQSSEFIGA
The test can be described thus: Biochemical EGFR inhibition assay (Caliper mobility shift), EGFR (d746-750). Particulars: read-out: Enz EGFR_Exon19-del746-750 IC50.

Setting [2] is: 1.0 mM ATP or ATP Km, room temperature (25° C.).

Read-outs that look alike come from different tables or passages of the source.

Among the data in US12662465B2, “EGFR inhibitors” (Blueprint Medicines Corporation, priority 2021, dated 2026) are IC50 values, retold here.

T1 sequence (P00533 25-1210 L858R): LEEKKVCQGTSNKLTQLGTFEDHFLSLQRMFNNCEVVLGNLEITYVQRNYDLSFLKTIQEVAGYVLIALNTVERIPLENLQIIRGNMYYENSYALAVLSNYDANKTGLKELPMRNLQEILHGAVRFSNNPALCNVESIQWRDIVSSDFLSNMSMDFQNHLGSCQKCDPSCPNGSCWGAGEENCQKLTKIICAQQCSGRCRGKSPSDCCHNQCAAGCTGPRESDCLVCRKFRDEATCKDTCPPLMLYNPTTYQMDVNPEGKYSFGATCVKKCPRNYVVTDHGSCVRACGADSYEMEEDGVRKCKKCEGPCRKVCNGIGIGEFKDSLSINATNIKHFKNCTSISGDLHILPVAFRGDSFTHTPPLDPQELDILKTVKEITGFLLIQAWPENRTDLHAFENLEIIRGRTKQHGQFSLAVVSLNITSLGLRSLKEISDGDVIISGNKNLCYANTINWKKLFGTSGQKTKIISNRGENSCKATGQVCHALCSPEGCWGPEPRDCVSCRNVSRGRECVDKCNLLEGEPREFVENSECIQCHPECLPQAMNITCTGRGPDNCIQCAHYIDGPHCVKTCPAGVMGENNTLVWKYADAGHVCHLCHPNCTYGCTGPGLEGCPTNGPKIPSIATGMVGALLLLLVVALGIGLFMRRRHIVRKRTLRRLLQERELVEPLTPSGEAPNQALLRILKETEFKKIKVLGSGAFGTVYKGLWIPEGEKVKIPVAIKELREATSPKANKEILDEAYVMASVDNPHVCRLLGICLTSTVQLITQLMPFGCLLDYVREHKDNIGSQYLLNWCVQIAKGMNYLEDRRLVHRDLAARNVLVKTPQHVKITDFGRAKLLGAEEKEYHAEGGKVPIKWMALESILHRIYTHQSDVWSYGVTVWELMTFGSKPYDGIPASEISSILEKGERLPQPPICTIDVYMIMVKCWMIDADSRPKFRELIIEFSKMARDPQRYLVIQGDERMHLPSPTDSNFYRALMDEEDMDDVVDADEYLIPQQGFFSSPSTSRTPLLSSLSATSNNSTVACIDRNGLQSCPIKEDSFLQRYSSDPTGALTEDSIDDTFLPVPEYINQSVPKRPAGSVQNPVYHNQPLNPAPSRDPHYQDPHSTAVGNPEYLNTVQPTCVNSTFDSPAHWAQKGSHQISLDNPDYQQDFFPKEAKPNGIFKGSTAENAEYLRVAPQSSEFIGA
Chain of intracellular phosphorylation of EGFR (Tyr1068) in PC-9 cells (Ex19Del) (P00533 with tags, fused parts or gaps DEL746-750): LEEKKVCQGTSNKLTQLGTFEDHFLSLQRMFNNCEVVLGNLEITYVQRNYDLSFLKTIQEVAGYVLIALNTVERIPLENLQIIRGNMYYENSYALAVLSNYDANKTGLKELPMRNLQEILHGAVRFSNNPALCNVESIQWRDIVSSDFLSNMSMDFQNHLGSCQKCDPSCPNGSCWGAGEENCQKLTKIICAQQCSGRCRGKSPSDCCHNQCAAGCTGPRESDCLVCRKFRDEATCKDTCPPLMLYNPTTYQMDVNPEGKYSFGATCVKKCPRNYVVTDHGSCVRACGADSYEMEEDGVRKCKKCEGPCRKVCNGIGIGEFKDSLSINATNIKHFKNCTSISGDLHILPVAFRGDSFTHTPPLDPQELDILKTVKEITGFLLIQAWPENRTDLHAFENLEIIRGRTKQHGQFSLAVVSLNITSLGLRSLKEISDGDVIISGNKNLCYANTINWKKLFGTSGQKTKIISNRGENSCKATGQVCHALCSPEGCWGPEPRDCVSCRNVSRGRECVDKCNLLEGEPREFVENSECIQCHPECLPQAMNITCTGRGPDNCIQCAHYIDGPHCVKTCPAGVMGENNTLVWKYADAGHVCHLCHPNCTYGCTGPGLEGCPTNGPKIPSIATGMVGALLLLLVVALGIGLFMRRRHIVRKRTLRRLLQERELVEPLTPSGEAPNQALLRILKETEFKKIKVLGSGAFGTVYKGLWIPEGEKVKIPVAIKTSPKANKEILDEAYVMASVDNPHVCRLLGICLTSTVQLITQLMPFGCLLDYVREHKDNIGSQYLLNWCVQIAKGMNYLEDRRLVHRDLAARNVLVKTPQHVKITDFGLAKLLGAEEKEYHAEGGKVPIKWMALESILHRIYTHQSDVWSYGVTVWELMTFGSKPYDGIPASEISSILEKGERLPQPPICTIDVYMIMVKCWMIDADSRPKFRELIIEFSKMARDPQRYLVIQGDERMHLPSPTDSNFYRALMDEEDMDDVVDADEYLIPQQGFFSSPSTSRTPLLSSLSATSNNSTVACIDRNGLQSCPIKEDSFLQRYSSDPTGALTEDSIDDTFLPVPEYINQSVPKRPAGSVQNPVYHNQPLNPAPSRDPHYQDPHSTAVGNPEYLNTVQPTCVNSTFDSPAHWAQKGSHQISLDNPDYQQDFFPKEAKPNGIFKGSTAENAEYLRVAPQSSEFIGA

A word on the IC50: it is the concentration at which inhibition is half-maximal. Turning to `C[C@@H](Oc1cc(-c2cnn(C)c2)cc2ncnc(Nc3ccc4ncccc4c3F)c12)C(CO)CCl` (stereo partly drawn) [Example 113, (3R)-2-(chloromethyl)-3-((4-((5-fluoroquinolin-6-yl)amino)-7-(1-methyl-1H-pyrazol-4-yl)quinazolin-5-yl)oxy)butan-1-ol], the IC50 in test [1] was at most 10 nM; at EGFR L858R it was under 10 nM; at EGFR (d746-750), under 10 nM.

With `COC[C@@H](C)Oc1cc(-c2cnn(C)c2)cc2ncnc(Nc3ccc4ncccc4c3F)c12` [Example 31, (R)—N-(5-fluoroquinolin-6-yl)-5-((1-methoxypropan-2-yl)oxy)-7-(1-methyl-1H-pyrazol-4-yl)quinazolin-4-amine], the IC50 is at most 10 nM in test [1], under 10 nM at EGFR L858R and under 10 nM at EGFR (d746-750).

As to `Cc1ccc2cc(Nc3ncnc4cc(-c5cnn(C)c5)cc(O[C@H](C)CN(C)C)c34)ccc2n1` [Example 105, (R)-5-((1-(dimethylamino)propan-2-yl)oxy)-7-(1-methyl-1H-pyrazol-4-yl)-N-(2-methylquinolin-6-yl)quinazolin-4-amine], the IC50 is 10.1 to 50 nM in test [1], 10.1 to 50 nM on EGFR L858R and under 10 nM at EGFR (d746-750).

In the case of `C[C@@H](Oc1cc(N2CC[C@H](N(C)C)C2)cc2ncnc(Nc3ccc4ncccc4c3F)c12)C1COC1` [Example 80, 7—((S)-3-(dimethylamino)pyrrolidin-1-yl)-N-(5-fluoroquinolin-6-yl)-5-((R)-1-(oxetan-3-yl)ethoxy)quinazolin-4-amine], the values for the half-maximal inhibitory concentration (IC50) (in test [1]; at EGFR L858R; at EGFR (d746-750)) were at most 10 nM, under 10 nM and under 10 nM, respectively.

For the compound `C[C@H](CN(C)C)Oc1cc(N2C3COCC2C3)cc2ncnc(Nc3ccc4ncccc4c3F)c12` [Example 89, 7-(3-oxa-6-azabicyclo[3.1.1]heptan-6-yl)-5-(((R)-1-(dimethylamino)propan-2-yl)oxy)-N-(5-fluoroquinolin-6-yl)quinazolin-4-amine], the IC50 (in test [1]; at EGFR L858R; on EGFR (d746-750)) was over 50.1 nM each time.

On to `C[C@H](CN(C)C)Oc1cc(-c2cnn(C)c2)cc2ncnc(Nc3cc(F)c4ncccc4c3F)c12` [Example 10, (R)—N-(5,8-difluoroquinolin-6-yl)-5-((1-(dimethylamino)propan-2-yl)oxy)-7-(1-methyl-1H-pyrazol-4-yl)quinazolin-4-amine], for which the IC50 in test [1] was at most 10 nM; on EGFR L858R it was under 10 nM; on EGFR (d746-750) it was under 10 nM.

For `C[C@@H](Oc1cc(-c2cnn(C)c2)cc2ncnc(Nc3ccc4ncccc4c3F)c12)[C@@H]1COCCN1C` (single isomer, unassigned) [Example 126], the IC50 in test [1] is at most 10 nM; on EGFR L858R (setting [2]), under 10 nM; on EGFR (d746-750) (setting [2]), under 10 nM.

For `C[C@H](CN(C)C)Oc1cc(-c2cnn(C)c2)cc2ncnc(Nc3ccc4ncc(F)cc4c3)c12` [Example 7, (R)-5-((1-(dimethylamino)propan-2-yl)oxy)-N-(3-fluoroquinolin-6-yl)-7-(1-methyl-1H-pyrazol-4-yl)quinazolin-4-amine], the figures for the IC50 (in test [1]; at EGFR L858R; at EGFR (d746-750)) were at most 10 nM, under 10 nM and under 10 nM, respectively.

`C[C@H](CO)Oc1cc(-c2cnn(C)c2)cc2ncnc(Nc3ccc4ncccc4c3F)c12` [Example 135, (R)-2-((4-((5-fluoroquinolin-6-yl)amino)-7-(1-methyl-1H-pyrazol-4-yl)quinazolin-5-yl)oxy)propan-1-ol]: the concentration for half-maximal inhibition (IC50) in test [1] is at most 10 nM; on EGFR L858R it was under 10 nM; at EGFR (d746-750), under 10 nM.

With `CN1CC[C@H](Oc2cc(-c3cnn(C)c3)cc3ncnc(Nc4ccc5ncccc5c4F)c23)[C@@H](F)C1` (single isomer, unassigned) [Example 144, 5-(((3S,4S)-3-fluoro-1-methylpiperidin-4-yl)oxy)-N-(5-fluoroquinolin-6-yl)-7-(1-methyl-1H-pyrazol-4-yl)quinazolin-4-amine or 5-(((3R,4R)-3-fluoro-1-methylpiperidin-4-yl)oxy)-N-(5-fluoroquinolin-6-yl)-7-(1-methyl-1H-pyrazol-4-yl)quinazolin-4-amine], the IC50 is 10.1 to 50 nM in test [1], under 10 nM on EGFR L858R (setting [2]) and under 10 nM on EGFR (d746-750) (setting [2]).

As to `C[C@H](CN(C)C)Oc1cc(N2CCCC2=O)cc2ncnc(Nc3ccc4ncccc4c3F)c12` [Example 96, (R)-1-(5-((1-(dimethylamino)propan-2-yl)oxy)-4-((5-fluoroquinolin-6-yl)amino)quinazolin-7-yl)pyrrolidin-2-one], the figures for the IC50 (in test [1]; at EGFR L858R; on EGFR (d746-750)) were at most 10 nM, 10.1 to 50 nM and under 10 nM, respectively.

Take `CO[C@H]1CCN(c2cc(O[C@H](C)CN(C)C)c3c(Nc4ccc5ncccc5c4F)ncnc3c2)C1` (single isomer, unassigned) [Example 87b, 5-(((R)-1-(dimethylamino)propan-2-yl)oxy)-N-(5-fluoroquinolin-6-yl)-7-((S)-3-methoxypyrrolidin-1-yl)quinazolin-4-amine or 5-(((R)-1-(dimethylamino)propan-2-yl)oxy)-N-(5-fluoroquinolin-6-yl)-7-((R)-3-methoxypyrrolidin-1-yl)quinazolin-4-amine]: the IC50 is at most 10 nM in test [1], under 10 nM on EGFR L858R (setting [2]) and under 10 nM on EGFR (d746-750) (setting [2]).

On to `Cn1cc(-c2cc(O[C@@H]3CC[C@@H]3O)c3c(Nc4ccc5ncccc5c4F)ncnc3c2)cn1` (single isomer, unassigned) [Example 16, (1S,2R)-2-((4-((5-fluoroquinolin-6-yl)amino)-7-(1-methyl-1H-pyrazol-4-yl)quinazolin-5-yl)oxy)cyclobutan-1-ol or (1R,2S)-2-((4-((5-fluoroquinolin-6-yl)amino)-7-(1-methyl-1H-pyrazol-4-yl)quinazolin-5-yl)oxy)cyclobutan-1-ol], for which the IC50 was at most 10 nM in test [1], under 10 nM at EGFR L858R (setting [2]) and under 10 nM at EGFR (d746-750) (setting [2]).

Take `[2H]c1c(-c2cc(O[C@H](C)CN(C)C)c3c(Nc4ccc5ncccc5c4F)ncnc3c2)cnn1C` [Example 159, (R)-5-((1-(dimethylamino)propan-2-yl)oxy)-N-(5-fluoroquinolin-6-yl)-7-(1-methyl-1H-pyrazol-4-yl-5-d)quinazolin-4-amine]: the IC50 is at most 10 nM in test [1], 10.1 to 50 nM at EGFR L858R and under 10 nM at EGFR (d746-750).

As for `C[C@@H](Oc1cc(-c2cnn(C)c2)cc2ncnc(Nc3ccc4ncccc4c3F)c12)C1COC1` [Example 46, (R)—N-(5-fluoroquinolin-6-yl)-7-(1-methyl-1H-pyrazol-4-yl)-5-(1-(oxetan-3-yl)ethoxy)quinazolin-4-amine], the figures for the IC50 (in test [1]; at EGFR L858R; at EGFR (d746-750)) were at most 10 nM, under 10 nM and under 10 nM, respectively.

For the compound `CO[C@@H]1CCN(c2cc(O[C@H](C)CN(C)C)c3c(Nc4ccc5ncccc5c4F)ncnc3c2)C1` (single isomer, unassigned) [Example 87a, 5-(((R)-1-(dimethylamino)propan-2-yl)oxy)-N-(5-fluoroquinolin-6-yl)-7-((R)-3-methoxypyrrolidin-1-yl)quinazolin-4-amine or 5-(((R)-1-(dimethylamino)propan-2-yl)oxy)-N-(5-fluoroquinolin-6-yl)-7-((S)-3-methoxypyrrolidin-1-yl)quinazolin-4-amine], the IC50 in test [1] was at most 10 nM; on EGFR L858R (setting [2]), under 10 nM; on EGFR (d746-750) (setting [2]), under 10 nM.

For the compound `C[C@H](CN(C)C)Oc1cc(N2CC[C@H](C(C)(C)O)C2)cc2ncnc(Nc3c(F)cc4ncccc4c3F)c12` [Example 88, 2—((S)-1-(4-((5,7-difluoroquinolin-6-yl)amino)-5-(((R)-1-(dimethylamino)propan-2-yl)oxy)quinazolin-7-yl)pyrrolidin-3-yl)propan-2-ol], the IC50 was at most 10 nM in test [1], under 10 nM at EGFR L858R and under 10 nM at EGFR (d746-750).

As for `Cc1ccc2c(F)c(Nc3ncnc4cc(-c5cnn(C)c5)cc(O[C@H](C)CN(C)C)c34)ccc2n1` [Example 107, (R)-5-((1-(dimethylamino)propan-2-yl)oxy)-N-(5-fluoro-2-methylquinolin-6-yl)-7-(1-methyl-1H-pyrazol-4-yl)quinazolin-4-amine], the values for the IC50 (in test [1]; on EGFR L858R; at EGFR (d746-750)) were 10.1 to 50 nM, 10.1 to 50 nM and under 10 nM, respectively.

For the compound `CC(CO)n1cc(-c2cc(O[C@H](C)C3COC3)c3c(Nc4ccc5ncccc5c4F)ncnc3c2)cn1` (mixture of isomers) [Example 119, (R)-2-(4-(4-((5-fluoroquinolin-6-yl)amino)-5-((R)-1-(oxetan-3-yl)ethoxy)quinazolin-7-yl)-1H-pyrazol-1-yl)propan-1-ol and (S)-2-(4-(4-((5-fluoroquinolin-6-yl)amino)-5-((R)-1-(oxetan-3-yl)ethoxy)quinazolin-7-yl)-1H-pyrazol-1-yl)propan-1-ol], the 50% inhibitory concentration (IC50) was at most 10 nM in test [1], under 10 nM at EGFR L858R and under 10 nM on EGFR (d746-750).

For the compound `C[C@H](O)[C@H](C)Oc1cc(-c2cnn(C)c2)cc2ncnc(Nc3ccc4ncccc4c3F)c12` (single isomer, unassigned) [Example 30, (2S,3S)-3-((4-((5-fluoroquinolin-6-yl)amino)-7-(1-methyl-1H-pyrazol-4-yl)quinazolin-5-yl)oxy)butan-2-ol or (2R,3R)-3-((4-((5-fluoroquinolin-6-yl)amino)-7-(1-methyl-1H-pyrazol-4-yl)quinazolin-5-yl)oxy)butan-2-ol], the values for the IC50 (in test [1]; on EGFR L858R (setting [2]); on EGFR (d746-750) (setting [2])) were at most 10 nM, under 10 nM and under 10 nM, respectively.
